Test results from ChEMBL document CHEMBL4699481, “Structure-based amelioration of PXR transactivation in a novel series of macrocyclic allosteric inhibitors of HIV-1 integrase” (Bioorg Med Chem Lett, 2020).
pEC50: −log10 of the molar value.

Columns and labels:
[1] = Allosteric inhibition of HIV-1 integrase assessed as antiviral activity against HIV-1 NL4-3 infected in human MT-2 cells by measuring inhibition of viral growth by luciferase reporter gene assay; assay type: cell-based; settings: Human immunodeficiency virus 1, NL4-3, MT2
[2] = target: T1, Nuclear receptor subfamily 1 group I member 2 (Homo sapiens, UniProt O75469); assay: Transactivation of human PXR transfected in human HepG2 cells co-transfected with CYP3A4-Luc plasmid incubated for overnight by luciferase reporter gene assay; assay type: ADME, cell-based
T1 sequence (O75469 whole entry): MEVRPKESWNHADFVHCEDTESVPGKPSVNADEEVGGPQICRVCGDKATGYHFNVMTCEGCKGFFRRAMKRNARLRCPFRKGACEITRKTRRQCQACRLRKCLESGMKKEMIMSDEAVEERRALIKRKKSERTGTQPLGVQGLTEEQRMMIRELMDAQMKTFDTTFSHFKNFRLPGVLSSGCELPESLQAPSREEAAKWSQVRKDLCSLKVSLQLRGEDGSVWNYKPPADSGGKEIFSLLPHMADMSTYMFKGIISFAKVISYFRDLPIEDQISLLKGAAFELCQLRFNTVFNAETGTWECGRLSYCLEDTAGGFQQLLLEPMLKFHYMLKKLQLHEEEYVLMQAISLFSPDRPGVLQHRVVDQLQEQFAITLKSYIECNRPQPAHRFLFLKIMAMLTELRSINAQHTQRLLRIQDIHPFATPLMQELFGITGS

[3] = target: T2, PXR (NR1I2) (Homo sapiens, UniProt O75469); assay: Transactivation of human PXR transfected in human HepG2 cells co-transfected with CYP3A4-Luc plasmid incubated for overnight by luciferase reporter gene assay relative to 10 uM rifampicin; assay type: ADME, cell-based
T2 sequence (O75469 whole entry): T1 sequence (O75469 whole entry)

pEC50 [2] | Emax [3] | Compound | pEC50 [1]
 |  | Cc1nc2cc(-c3cccc(-c4ccccc4)c3)nn2c(N2CCC(C)(C)CC2)c1[C@H](OC(C)(C)C)C(=O)O | 6.89
< 4.30 |  | Cc1c([C@H](OC(C)(C)C)C(=O)O)c2n3cc(nc3c1CN(C)C)-c1cccc(c1)-c1cc(F)ccc1O[C@@H](C)CCCCOC1(C)CCN2CC1 | 8.36
6.00 | 71% | Cc1c([C@H](OC(C)(C)C)C(=O)O)c2n3cc(nc3c1C(C)(C)O)-c1cccc(c1)-c1cc(F)ccc1O[C@@H](C)CCCCOC1(C)CCN2CC1 | 8.24
 |  | Cc1cc2nc(-c3cccc(-c4cccc(F)c4)c3)cn2c(N2CCC(C)(C)CC2)c1[C@H](OC(C)(C)C)C(=O)O | 7.68
< 4.30 |  | Cc1c([C@H](OC(C)(C)C)C(=O)O)c2n3cc(nc3c1CNCC(C)(C)O)-c1cccc(c1)-c1cc(F)ccc1O[C@@H](C)CCCCOC1(C)CCN2CC1 | 8.02
< 4.30 |  | Cc1c([C@H](OC(C)(C)C)C(=O)O)c2n3cc(nc3c1CNC(C)C)-c1cccc(c1)-c1cc(F)ccc1O[C@@H](C)CCCCOC1(C)CCN2CC1 | 8.14
